Test results taken from ChEMBL document CHEMBL1122316, “Different receptor sites mediate opioid agonism and antagonism” (J Med Chem, 1983).

Experiments:
[1] = biological target: Opioid receptors; mu/kappa/delta (Homo sapiens, UniProt P41145+P41143+P35372); experiment: Evaluated the ability to protect against the irreversible antagonism of morphines effects by beta-FNA in guinea pig ileal longitudinal muscle.; type: functional, tissue-based, Cavia porcellus, Muscle tissue
[2] = Compound was tested for ability to protect against the irreversible antagonism of morphine''s effects by beta-FNA in guinea pig ileum at 1 uM concentration; type: functional
[3] = Compound was tested for ability to protect against the irreversible antagonism of morphine''s effects by beta-FNA in guinea pig ileum at 10 nM concentration, ratio is IC50 after treatment/control IC50; type: functional
[4] = Compound was evaluated for equilibrium constant, Ke; type: ADME
[5] = Compound was tested for ability to protect against the irreversible antagonism of morphine''s effects by beta-FNA in guinea pig ileum at 200 nM concentration; type: functional
[6] = Compound was tested for ability to protect against the irreversible antagonism of morphine''s effects by beta-FNA in guinea pig ileum at 20 nM concentration; type: functional
[7] = Compound was tested for ability to protect against the irreversible antagonism of morphine''s effects by beta-FNA in guinea pig ileum at 2 nM concentration; type: functional
[8] = Effect of protecte expressed as morphine IC50 ratio (IC50 after treatment/control IC50) at 200 nM concentration; type: functional

COC(=O)/C=C/C(=O)N[C@@H]1CC[C@@]2(O)C3Cc4ccc(O)c5c4C2(CCN3C)C1O5 (stereo partly specified)
IC50 [1]: 22 nM | Ratio [2]: 5.2

CCOc1ccc2c(c1)C1(C)CCN(CC3CC3)C(C2=O)C1C (stereo unspecified) [ETHYLKETAZOCINE]
IC50 [1]: 0.6 nM | Ratio [3]: 4.6

C=CCN1CC[C@]23c4c5ccc(O)c4O[C@H]2[C@@H](O)C=C[C@H]3[C@H]1C5 [NALORPHINE]
Ke [4]: 4.5 | IC50 [1]: 28 nM | Ratio [5]: 1.9 | Ratio [2]: 1.4

C=CCN1CC[C@]23c4c5ccc(O)c4O[C@H]2C(=O)CC[C@@]3(O)[C@H]1C5 [NALOXONE]
Ke [4]: 1.2 | Ratio [6]: 1.9 | Ratio [7]: 3.4 | Ratio [8]: 1.1

O=C1CC[C@@]2(O)[C@H]3Cc4ccc(O)c5c4[C@@]2(CCN3CC2CC2)[C@H]1O5 [NALTREXONE]
Ke [4]: 0.38 | Ratio [6]: 1 | Ratio [7]: 2.4 | Ratio [8]: 1
